In US7928090B2, “External preparation composition” (Lion Corporation, priority 2002, dated 2011):

How the values were obtained:
[1] = system: back skin of hairless mice irradiated with UVB; assay: Coarse texture-improving test; assay type: in vivo, hairless mice (hos: HR-1); details: 0.05% in ethanol/propylene glycol (7:3), 100 μL, 4 weeks; texture intersection points relative to non-irradiated group (control 24)
Method: (§1) Four (4) hairless mice per 1 group (hos: HR-1, 10 weeks of age, female) were irradiated on the back skin once a day with UVB at 40 mJ/cm^2 three times a week over a period of 6 weeks. After finishing irradiation, each 100 μL of an ethanol/propylene glycol (7:3) solution containing 0.05% of various acyl glucosamine derivatives shown in the following Table 4 or an ethanol/propylene glycol (7:3) solution as a control was applied on the mouse back in a frequency of once a day and five times a week over 4 weeks.
After finishing application, a replica agent (brand name SILFLO®; manufactured by UK FLEXICO DEVELOPMENTS LTD.) was used to obtain a replica of a mouse back skin. A replica of a UV-non-irradiated group (4 heads) was obtained as a control in the same manner.
The enlarged photographs of the respective replicas were taken through a macro lens (magnification: four times), and the photographs were used to evaluate “coarsening of the texture”.
The coarseness of the texture was defined by a “number of texture intersection point”, wherein a point in which three or more sulci cutis are joined is counted as one intersection point, and the number of the texture intersection points present in a square of 1 cm×1 cm was counted on the replica photograph.
An average point for the respective groups was calculated, and the texture-improving rate was calculated according to the following equation (III). Texture-improving rate (%)=[(number of texture intersection of applied group)/(number of texture intersection point of non-irradiated group)]×100 (III)

[2] = system: skin roughness in the inside of a forearm of a human being; assay: Skin roughness-improving test (SDS-induced skin roughness); assay type: in vivo; details: hydrophilic ointment with 0.05%, twice a day, 3 days; conductance relative to ointment with no tested substance = 100
Method: A 10% SDS solution was used to artificially form a skin roughness in the inside of a forearm of a human being, and a hydrophilic ointment blended with 0.05% of various acyl glucosamine derivatives shown in the following Table 5 was applied thereon twice a day.
The skin roughness-improving degree observed 3 days later after application was evaluated using a change in a stratum corneum water content as an index. The stratum corneum water content is measured in terms of a conductance (μS). The improving degree was shown by a relative value, wherein the conductance observed when applying the hydrophilic ointment blended with no acyl glucosamine derivative was set at 100, and the skin roughness-improving rate was calculated according to the following equation (IV). Skin roughness-improving rate (%)=[(conductance observed when applying the ointment blended with the tested substance)/(conductance observed when applying the ointment blended with no tested substance)]×100 (IV)

guinea pig skin = assay: Continuous irritative test of guinea pig skin (Draize method); assay type: in vivo, guinea pig (Hartley series); details: Table 1; 0.5% in ethanol/propylene glycol (7:3), 50 μL once a day, 3 days straight; total of erythema and edema, full marks 8 points
Method: Each left and right two spots (4 spots/head) of applying parts having a frame of 2 cm×2 cm were provided on the back of a shaved guinea pig (Hartley series, 7 weeks of age, female, N=10), and each 50 μL of an ethanol/propylene glycol (7:3) solution containing 0.5% of the respective acyl glucosamine derivatives shown in the following Table 1 was applied once a day on the respective frames.
A skin irritative score after application for 3 days straight was evaluated according to the following evaluation criteria (Draize method). The above irritative score was shown by the total points (full marks: 8 points) of erythema and edema.
Evaluation Criteria of Skin Irritative Score:
3: middle to strong erythema
4: very strong erythema to crust
1: very slight edema formation
2: slight edema formation
3: middle edema formation
4: strong edema formation

[3] = system: back skin of hairless mice irradiated with UVB; assay: Wrinkle-improving test; assay type: in vivo, hairless mice (hos: HR-1); details: 0.05% in ethanol/propylene glycol (7:3), 100 μL once a day, five times a week, 8 weeks; versus control group
Method: as §1, with “at 50” for “at 40”, “mJ/cm^2 five” for “mJ/cm^2 three”, “of 10” for “of 6”, “Table 3” for “Table 4 or an ethanol/propylene glycol (7:3) solution as a control”, “over 8” for “over 4”
After finishing application for 8 weeks, the degree of wrinkles was visually evaluated according to the following evaluation criteria and calculation equation. A control group applied with the ethanol/propylene glycol (7:3) solution was evaluated as a control in the same manner.
Evaluation Criteria of the Degree of Wrinkles:
Evaluation point 0: a lot of fine striations is present on the back and the flank; fine striations run in a direction from the head to the tail; and the striations appear or disappear with the motion of the mouse.
Evaluation point 1: all fine striations along the spine are not observed; a few shallow and coarse wrinkles run perpendicularly to the head-to-tail direction; and the striations appear or disappear with the motion of the mouse.
The respective bodies were evaluated by an evaluation point of a 0.5 unit to calculate an average point for the respective groups, and the wrinkle-improving rate was calculated for the respective groups according to the following equation (II). Wrinkle-improving rate (%)=[(average value of the control group−average value of a glucosamine derivative-applied group)/(average value of the control group)]×100 (II)

[4] = system: pigmentation on the backs of color guinea pigs; assay: Whitening evaluation (UV-induced pigmentation); assay type: in vivo; set-up: key: +++: notably improved; ++: improved; +: a little improved; ±: no change; details: 0.05% in ethanol/propylene glycol (7:3), 30 μL once a day, five times a week, 4 weeks; visual change in pigmentation
Method: Back body hair of color guinea pigs were shaved by means of a hair clipper and a shaver, and they were irradiated with UV rays once a day, 4 times a week and 8 times in total, whereby 4 parts of pigmentation having an area of about 2.25 cm^2 were formed on the backs of the respective guinea pigs.
Each 30 μL of an ethanol/propylene glycol (7:3) solution containing 0.05% of various acyl glucosamine derivatives shown in the following Table 7 was applied thereon in a frequency of once a day and five times a week over 4 weeks, and a change in the pigmentation was visually evaluated according to four degrees of the following evaluation criteria. The solution containing no acyl glucosamine derivative was used for a comparative example.

acne patients = assay: Acne-improvement evaluation; assay type: in vivo, human; details: essence with 0.05%, one month; for Evaluation X (worsened), number of subjects / Evaluation Δ (no change), number of subjects / Evaluation ⊚ (notably improved), number of subjects / Evaluation ◯ (improved), number of subjects: applied on face several times a day; for Acne treating effect: percentage of subjects rated improved or better
Method: Prepared was an essence for acne shown in the following composition example in which 0.05% of various acyl glucosamine derivatives shown in the following Table 6 was blended. An essence which was not blended with an acyl glucosamine derivative was prepared as a control.
Sixty acne patients were picked up as subjects to apply everyday the respective essences on the faces thereof several times a day, and the therapeutic effect against the acnes was visually evaluated a month later according to four degrees of the following evaluation criteria.
In the four degree evaluation described above, improvement (∘) or better effect (⊚) was regarded as “effective for treating acnes”, and the subjects showing a treating effect were shown by a numerical value (percentage).

**Q.** CCCCCCCCCCCCCCCCCCOCCOCCOCCOCCOCCOC(=O)N[C@H]1C(O)O[C@H](CO)[C@@H](O)[C@@H]1O (stereo partly drawn) [N-POE (5) octadecyletheroxycarbonyl-D-glucosamine] was tested. Which Texture-improving rate [1] did it give?
**A.** The Texture-improving rate was 92%.

**Q.** And the Skin roughness-improving rate [2]?
**A.** The Skin roughness-improving rate was 128%.

**Q.** And the Draize score (guinea pig skin)?
**A.** The Draize score was 0.2 points.

**Q.** And the Wrinkle-improving rate [3]?
**A.** The Wrinkle-improving rate was 73%.

**Q.** What about the Whitening-improving effect [4] of the same compound?
**A.** The Whitening-improving effect was “++”.

**Q.** What about the “Evaluation X (worsened), number of subjects” value (acne patients) of the same compound?
**A.** Its value is 0.

**Q.** And the “Evaluation Δ (no change), number of subjects” value (acne patients)?
**A.** The value was 3.

**Q.** And the “Evaluation ⊚ (notably improved), number of subjects” value (acne patients)?
**A.** The value was 0.

**Q.** And the “Evaluation ◯ (improved), number of subjects” value (acne patients)?
**A.** The value was 2.

**Q.** What about the Acne treating effect (acne patients) of the same compound?
**A.** Its Acne treating effect is 40%.

**Q.** With CCCCCCCCCCCCCCCCCCCCCCOCCOCCOCCOCCOCCOCCOCCOCCOCCOCCOC(=O)N[C@H]1C(O)O[C@H](CO)[C@@H](O)[C@@H]1O (stereo partly drawn) [N-POE (10) docosyletheroxycarbonyl-D-glucosamine] as the compound, how does the Texture-improving rate [1] read?
**A.** Its Texture-improving rate is 88%.

**Q.** What about the Skin roughness-improving rate [2] of the same compound?
**A.** Its Skin roughness-improving rate is 138%.

**Q.** And the Draize score (guinea pig skin)?
**A.** Its Draize score is 0.1 points.

**Q.** And the Wrinkle-improving rate [3]?
**A.** The Wrinkle-improving rate was 82%.

**Q.** And the Whitening-improving effect [4]?
**A.** Its Whitening-improving effect is “++”.

**Q.** And the “Evaluation X (worsened), number of subjects” value (acne patients)?
**A.** The value was 0.

**Q.** What about the “Evaluation Δ (no change), number of subjects” value (acne patients) of the same compound?
**A.** The value was 3.

**Q.** And the “Evaluation ⊚ (notably improved), number of subjects” value (acne patients)?
**A.** The value was 0.

**Q.** And the “Evaluation ◯ (improved), number of subjects” value (acne patients)?
**A.** The value was 2.

**Q.** What about the Acne treating effect (acne patients) of the same compound?
**A.** The Acne treating effect was 40%.
